Measurements as given in ChEMBL document CHEMBL2073986, “Impaired organic anion transport in kidney and choroid plexus of organic anion transporter 3 (Oat3 (Slc22a8)) knockout mice” (J Biol Chem, 2002).

Target: T1, Organic anion transporter 3 (Mus musculus, UniProt O88909)
T1 sequence (O88909 whole entry): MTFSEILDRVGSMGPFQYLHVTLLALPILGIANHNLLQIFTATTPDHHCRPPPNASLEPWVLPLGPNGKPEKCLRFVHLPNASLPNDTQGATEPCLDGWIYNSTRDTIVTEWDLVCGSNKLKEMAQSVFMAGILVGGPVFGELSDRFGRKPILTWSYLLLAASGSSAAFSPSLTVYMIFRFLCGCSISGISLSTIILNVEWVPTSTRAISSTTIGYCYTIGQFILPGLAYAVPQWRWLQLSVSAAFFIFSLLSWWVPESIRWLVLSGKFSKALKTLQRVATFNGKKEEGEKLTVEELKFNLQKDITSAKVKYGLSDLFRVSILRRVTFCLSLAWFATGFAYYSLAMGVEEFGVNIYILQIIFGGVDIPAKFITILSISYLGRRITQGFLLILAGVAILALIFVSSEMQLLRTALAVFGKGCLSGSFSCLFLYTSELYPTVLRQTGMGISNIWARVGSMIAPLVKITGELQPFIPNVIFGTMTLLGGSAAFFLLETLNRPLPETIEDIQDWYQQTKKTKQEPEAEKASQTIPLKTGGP
Test: TP_TRANSPORTER: uptake in Xenopus laevis oocytes
Format: functional, cell-based
Settings: oocyte

Activity	Structure (SMILES)
substrate [+]	Nc1ccc(C(=O)NCC(=O)O)cc1 [AMINOHIPPURIC ACID]
substrate [+]	C[C@]12CC[C@@H]3c4ccc(OS(=O)(=O)O)cc4CC[C@H]3[C@@H]1CCC2=O [ESTRONE SULFURIC ACID]
